# Reference: patent publication US20260374739A1, “SMALL MOLECULAR WEIGHT CHEMICAL COMPOUND TO ANTAGONIZE EPH-EPHRIN TETRAMERIZATION AND INHIBIT BIDIRECTIONAL SIGNALING” (THE BOARD OF REGENTS OF THE UNIVERSITY OF TEXAS SYSTEM, priority 2022, published 2026)
# Several values for one entry are separate records, joined by “and”; a condition that tells them apart may be missing. Identical values can stand only once.
# Target: T1, EphrinB2-EphB2 (Homo sapiens, UniProt P29323)
# T1 construct: soluble human EphB1-His, EphB2-His, and EphB4-His ectodomains; commercially available human EphrinB1-Fc (EB1), EphrinB2-Fc (EB2), and EphrinB3-Fc (EB3) ectodomain proteins; purchased
# T1 sequence (P29323 19-543 limits assumed): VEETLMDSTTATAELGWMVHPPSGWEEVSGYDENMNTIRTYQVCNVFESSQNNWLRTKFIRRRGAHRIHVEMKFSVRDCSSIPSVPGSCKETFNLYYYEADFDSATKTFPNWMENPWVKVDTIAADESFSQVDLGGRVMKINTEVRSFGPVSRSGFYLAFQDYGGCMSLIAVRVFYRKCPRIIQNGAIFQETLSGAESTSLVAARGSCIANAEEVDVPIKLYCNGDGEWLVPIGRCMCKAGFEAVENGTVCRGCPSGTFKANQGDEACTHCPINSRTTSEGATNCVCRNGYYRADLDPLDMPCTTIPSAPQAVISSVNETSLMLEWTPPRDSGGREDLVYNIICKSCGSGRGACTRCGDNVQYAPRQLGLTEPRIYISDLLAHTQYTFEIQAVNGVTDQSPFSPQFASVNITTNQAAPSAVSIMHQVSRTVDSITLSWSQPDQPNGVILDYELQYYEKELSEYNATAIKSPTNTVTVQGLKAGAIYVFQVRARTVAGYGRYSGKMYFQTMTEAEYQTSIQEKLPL
# Test: Octet 80 sec association/500 sec dissociation, immobilized human EphrinB2-Fc binding to soluble human EphB2-His
# Conditions: at 3.2 μM and 80 seconds; immobilized human EphrinB2; 25 nM soluble human EphB2
# Method in brief: (§1)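 EphrinB2-Fc captured on AHC biosensors, then soluble His-tagged EphB ectodomain (25 nM for % inhibition runs) associated 80 s and dissociated 500 s in PBS, 0.05% Tween-20, 1% DMSO ± compound. Compounds tested at 0.1–3.2 μM with a 10 μM max standard; IC50 from AUC of full traces or at 75 s and 135 s.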
row,SMILES,"EphB2 Inhibition Percent, Inhibition of Association ONLY"
1,"Oc1ccc(CN2CCN(c3ccc(Br)cc3)CC2)c2cccnc12 [Compound 27, 5-((4-(4-bromophenyl)piperazin-1-ium-1-yl)methyl)-8-hydroxyquinolin-1-ium chloride]",16.8% and 29.2%
2,"Oc1ccc(CN2CCN(c3ccc(Br)cn3)CC2)c2cccnc12 [Compound 34, 5-((4-(5-bromopyridin-2-yl)piperazin-1-ium-1-yl)methyl)-8-hydroxyquinolin-1-ium chloride]",69.4%
3,"Nc1ccc(N2CCN(Cc3ccc(O)c4ncccc34)CC2)cc1 [Compound 39, 5-((4-(4-aminophenyl)piperazin-1-yl)methyl)quinolin-8-ol]",33.9% and 31.2%
4,Oc1ccc(CN2CCN(c3ccc(I)cc3)CC2)c2cccnc12 [Compound 32],63.9%

# Same assay, conditions: at 3.2 μM and 580 seconds; immobilized human EphrinB2; 25 nM soluble human EphB2
row,SMILES,"EphB2 Inhibition Percent, Inhibition of Association-Dissociation"
1,"Oc1ccc(CN2CCN(c3ccc(Br)cc3)CC2)c2cccnc12 [Compound 27, 5-((4-(4-bromophenyl)piperazin-1-ium-1-yl)methyl)-8-hydroxyquinolin-1-ium chloride]",60.9% and 43.7%
2,"Oc1ccc(CN2CCN(c3ccc(Br)cn3)CC2)c2cccnc12 [Compound 34, 5-((4-(5-bromopyridin-2-yl)piperazin-1-ium-1-yl)methyl)-8-hydroxyquinolin-1-ium chloride]",81.6%
3,"Nc1ccc(N2CCN(Cc3ccc(O)c4ncccc34)CC2)cc1 [Compound 39, 5-((4-(4-aminophenyl)piperazin-1-yl)methyl)quinolin-8-ol]",46.4% and 45.6%
4,Oc1ccc(CN2CCN(c3ccc(I)cc3)CC2)c2cccnc12 [Compound 32],78.2%

# Target: T1, EphrinB2-EphB2
# Test: Octet tetramerization inhibition, immobilized human EphrinB2 binding to 50 nM soluble human EphB2
# Conditions: Absolute AUC/IC50, Table A, EphrinB2-EphB2
row,SMILES,IC50 [µM]
1,"Oc1ccc(CN2CCN(c3ccc(Br)cc3)CC2)c2cccnc12 [Compound 27, 5-((4-(4-bromophenyl)piperazin-1-ium-1-yl)methyl)-8-hydroxyquinolin-1-ium chloride]",> 1.6
2,"Nc1ccc(N2CCN(Cc3ccc(O)c4ncccc34)CC2)cc1 [Compound 39, 5-((4-(4-aminophenyl)piperazin-1-yl)methyl)quinolin-8-ol]",3.09
3,Oc1ccc(CN2CCN(c3ccc(I)cc3)CC2)c2cccnc12 [Compound 32],> 1.6

# Same assay, conditions: Absolute Association IC50 (300 sec), Table A, EphrinB2-EphB2
row,SMILES,IC50 [µM]
1,"Oc1ccc(CN2CCN(c3ccc(Br)cc3)CC2)c2cccnc12 [Compound 27, 5-((4-(4-bromophenyl)piperazin-1-ium-1-yl)methyl)-8-hydroxyquinolin-1-ium chloride]",> 1.6
2,"Oc1ccc(CN2CCN(c3ccc(Br)cn3)CC2)c2cccnc12 [Compound 34, 5-((4-(5-bromopyridin-2-yl)piperazin-1-ium-1-yl)methyl)-8-hydroxyquinolin-1-ium chloride]",2.82
3,"Nc1ccc(N2CCN(Cc3ccc(O)c4ncccc34)CC2)cc1 [Compound 39, 5-((4-(4-aminophenyl)piperazin-1-yl)methyl)quinolin-8-ol]",3.02
4,Oc1ccc(CN2CCN(c3ccc(I)cc3)CC2)c2cccnc12 [Compound 32],> 1.6

# Same assay, conditions: Absolute Dissociation IC50 (450 sec), Table A, EphrinB2-EphB2
row,SMILES,IC50 [µM]
1,"Oc1ccc(CN2CCN(c3ccc(Br)cc3)CC2)c2cccnc12 [Compound 27, 5-((4-(4-bromophenyl)piperazin-1-ium-1-yl)methyl)-8-hydroxyquinolin-1-ium chloride]",> 1.6
2,"Oc1ccc(CN2CCN(c3ccc(Br)cn3)CC2)c2cccnc12 [Compound 34, 5-((4-(5-bromopyridin-2-yl)piperazin-1-ium-1-yl)methyl)-8-hydroxyquinolin-1-ium chloride]",2.63
3,"Nc1ccc(N2CCN(Cc3ccc(O)c4ncccc34)CC2)cc1 [Compound 39, 5-((4-(4-aminophenyl)piperazin-1-yl)methyl)quinolin-8-ol]",2.83
4,Oc1ccc(CN2CCN(c3ccc(I)cc3)CC2)c2cccnc12 [Compound 32],> 1.6

# Same assay, conditions: Relative AUC/IC50, Table A, EphrinB2-EphB2; compound 7: association only
row,SMILES,IC50 [µM]
1,"Oc1ccc(CN2CCN(c3ccc(Br)cc3)CC2)c2cccnc12 [Compound 27, 5-((4-(4-bromophenyl)piperazin-1-ium-1-yl)methyl)-8-hydroxyquinolin-1-ium chloride]",0.42
2,"Oc1ccc(CN2CCN(c3ccc(Br)cn3)CC2)c2cccnc12 [Compound 34, 5-((4-(5-bromopyridin-2-yl)piperazin-1-ium-1-yl)methyl)-8-hydroxyquinolin-1-ium chloride]",1.7
3,"Nc1ccc(N2CCN(Cc3ccc(O)c4ncccc34)CC2)cc1 [Compound 39, 5-((4-(4-aminophenyl)piperazin-1-yl)methyl)quinolin-8-ol]",1.7
4,Oc1ccc(CN2CCN(c3ccc(I)cc3)CC2)c2cccnc12 [Compound 32],0.79

# Same assay, conditions: Relative Association IC50 (300 sec), Table A, EphrinB2-EphB2
row,SMILES,IC50 [µM]
1,"Oc1ccc(CN2CCN(c3ccc(Br)cn3)CC2)c2cccnc12 [Compound 34, 5-((4-(5-bromopyridin-2-yl)piperazin-1-ium-1-yl)methyl)-8-hydroxyquinolin-1-ium chloride]",2.09
2,"Nc1ccc(N2CCN(Cc3ccc(O)c4ncccc34)CC2)cc1 [Compound 39, 5-((4-(4-aminophenyl)piperazin-1-yl)methyl)quinolin-8-ol]",2.75
3,Oc1ccc(CN2CCN(c3ccc(I)cc3)CC2)c2cccnc12 [Compound 32],1.4

# Same assay, conditions: Relative Dissociation IC50 (450 sec), Table A, EphrinB2-EphB2
row,SMILES,IC50 [µM]
1,"Nc1ccc(N2CCN(Cc3ccc(O)c4ncccc34)CC2)cc1 [Compound 39, 5-((4-(4-aminophenyl)piperazin-1-yl)methyl)quinolin-8-ol]",2.25
2,Oc1ccc(CN2CCN(c3ccc(I)cc3)CC2)c2cccnc12 [Compound 32],1

# Same assay, conditions: tetramerization inhibitor IC50 (relative), association step; surmountable tetramer
row,SMILES,IC50 [µM]
1,"Nc1ccc(N2CCN(Cc3ccc(O)c4ncccc34)CC2)cc1 [Compound 39, 5-((4-(4-aminophenyl)piperazin-1-yl)methyl)quinolin-8-ol]",~2

# Target: T2, EphrinB2-EphB4 (Homo sapiens, UniProt P54760)
# T2 construct: soluble human EphB1-His, EphB2-His, and EphB4-His ectodomains; commercially available human EphrinB1-Fc (EB1), EphrinB2-Fc (EB2), and EphrinB3-Fc (EB3) ectodomain proteins; purchased
# T2 sequence (P54760 16-539 limits assumed): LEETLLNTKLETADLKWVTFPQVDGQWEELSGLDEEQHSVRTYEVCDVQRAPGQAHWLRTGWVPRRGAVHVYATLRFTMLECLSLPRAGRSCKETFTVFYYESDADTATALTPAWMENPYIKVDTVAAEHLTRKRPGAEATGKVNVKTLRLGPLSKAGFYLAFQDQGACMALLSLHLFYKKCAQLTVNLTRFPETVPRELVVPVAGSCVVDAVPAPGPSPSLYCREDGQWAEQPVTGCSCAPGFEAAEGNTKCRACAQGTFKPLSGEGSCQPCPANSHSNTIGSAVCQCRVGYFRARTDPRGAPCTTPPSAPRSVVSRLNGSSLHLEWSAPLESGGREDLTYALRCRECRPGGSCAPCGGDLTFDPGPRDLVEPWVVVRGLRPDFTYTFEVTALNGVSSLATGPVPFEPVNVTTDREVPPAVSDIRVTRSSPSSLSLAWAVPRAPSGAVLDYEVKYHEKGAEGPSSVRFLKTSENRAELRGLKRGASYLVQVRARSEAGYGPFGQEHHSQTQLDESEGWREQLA
# Test: Octet 80 sec association/500 sec dissociation, immobilized human EphrinB2-Fc binding to soluble human EphB4-His
# Conditions: 3.2 μM
# Method in brief: as §1
row,SMILES,selectivity among EphrinB2-EphB1/B2/B4
1,"Nc1ccc(N2CCN(Cc3ccc(O)c4ncccc34)CC2)cc1 [Compound 39, 5-((4-(4-aminophenyl)piperazin-1-yl)methyl)quinolin-8-ol]",less action toward EphB4 and EphB1 but high specificity for EphB2

# Same assay, conditions: at 3.2 μM and 80 seconds; immobilized human EphrinB2; 25 nM soluble human EphB4
row,SMILES,"EphB4 Inhibition Percent, Inhibition of Association ONLY"
1,"Oc1ccc(CN2CCN(c3ccc(Br)cc3)CC2)c2cccnc12 [Compound 27, 5-((4-(4-bromophenyl)piperazin-1-ium-1-yl)methyl)-8-hydroxyquinolin-1-ium chloride]",11.4/11.4%
2,"Oc1ccc(CN2CCN(c3ccc(Br)cn3)CC2)c2cccnc12 [Compound 34, 5-((4-(5-bromopyridin-2-yl)piperazin-1-ium-1-yl)methyl)-8-hydroxyquinolin-1-ium chloride]",20.9%
3,"Nc1ccc(N2CCN(Cc3ccc(O)c4ncccc34)CC2)cc1 [Compound 39, 5-((4-(4-aminophenyl)piperazin-1-yl)methyl)quinolin-8-ol]",0.4% and 0%
4,Oc1ccc(CN2CCN(c3ccc(I)cc3)CC2)c2cccnc12 [Compound 32],33.8%

# Same assay, conditions: at 3.2 μM and 580 seconds; immobilized human EphrinB2; 25 nM soluble human EphB4
row,SMILES,"EphB4 Inhibition Percent, Inhibition of Association-Dissociation"
1,"Oc1ccc(CN2CCN(c3ccc(Br)cc3)CC2)c2cccnc12 [Compound 27, 5-((4-(4-bromophenyl)piperazin-1-ium-1-yl)methyl)-8-hydroxyquinolin-1-ium chloride]",19.5% and 12.6%
2,"Oc1ccc(CN2CCN(c3ccc(Br)cn3)CC2)c2cccnc12 [Compound 34, 5-((4-(5-bromopyridin-2-yl)piperazin-1-ium-1-yl)methyl)-8-hydroxyquinolin-1-ium chloride]",36.9%
3,"Nc1ccc(N2CCN(Cc3ccc(O)c4ncccc34)CC2)cc1 [Compound 39, 5-((4-(4-aminophenyl)piperazin-1-yl)methyl)quinolin-8-ol]",6.9% and 5.5%
4,Oc1ccc(CN2CCN(c3ccc(I)cc3)CC2)c2cccnc12 [Compound 32],42.5%

# Target: T3, EphrinB2-EphB1 (Homo sapiens, UniProt P54762)
# T3 construct: soluble human EphB1-His, EphB2-His, and EphB4-His ectodomains; commercially available human EphrinB1-Fc (EB1), EphrinB2-Fc (EB2), and EphrinB3-Fc (EB3) ectodomain proteins; purchased
# T3 sequence (P54762 18-540 limits assumed): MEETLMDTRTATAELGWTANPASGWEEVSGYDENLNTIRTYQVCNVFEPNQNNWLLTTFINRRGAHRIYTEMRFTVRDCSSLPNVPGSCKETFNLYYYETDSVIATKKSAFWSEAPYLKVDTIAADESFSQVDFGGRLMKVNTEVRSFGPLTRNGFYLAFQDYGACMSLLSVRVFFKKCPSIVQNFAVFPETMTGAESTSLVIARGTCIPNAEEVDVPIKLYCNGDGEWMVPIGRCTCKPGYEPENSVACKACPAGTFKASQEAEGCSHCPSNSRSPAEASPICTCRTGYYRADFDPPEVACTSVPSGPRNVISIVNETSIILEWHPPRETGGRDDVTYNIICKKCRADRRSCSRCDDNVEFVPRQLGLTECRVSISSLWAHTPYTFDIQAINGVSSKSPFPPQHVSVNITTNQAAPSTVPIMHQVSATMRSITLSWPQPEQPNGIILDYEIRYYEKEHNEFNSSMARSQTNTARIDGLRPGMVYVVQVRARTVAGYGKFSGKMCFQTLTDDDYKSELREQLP
# Test: Octet 80 sec association/500 sec dissociation, immobilized human EphrinB2-Fc binding to soluble human EphB1-His
# Conditions: at 3.2 μM and 80 seconds; immobilized human EphrinB2; 25 nM soluble human EphB1
# Method in brief: as §1
row,SMILES,"EphB1 Inhibition Percent, Inhibition of Association ONLY"
1,"Oc1ccc(CN2CCN(c3ccc(Br)cc3)CC2)c2cccnc12 [Compound 27, 5-((4-(4-bromophenyl)piperazin-1-ium-1-yl)methyl)-8-hydroxyquinolin-1-ium chloride]",24.2% and 33.8%
2,"Oc1ccc(CN2CCN(c3ccc(Br)cn3)CC2)c2cccnc12 [Compound 34, 5-((4-(5-bromopyridin-2-yl)piperazin-1-ium-1-yl)methyl)-8-hydroxyquinolin-1-ium chloride]",46.4%
3,Oc1ccc(CN2CCN(c3ccc(I)cc3)CC2)c2cccnc12 [Compound 32],24.5%

# Same assay, conditions: at 3.2 μM and 580 seconds; immobilized human EphrinB2; 25 nM soluble human EphB1
row,SMILES,"EphB1 Inhibition Percent, Inhibition of Association-Dissociation"
1,"Oc1ccc(CN2CCN(c3ccc(Br)cc3)CC2)c2cccnc12 [Compound 27, 5-((4-(4-bromophenyl)piperazin-1-ium-1-yl)methyl)-8-hydroxyquinolin-1-ium chloride]",57.1% and 43.8%
2,"Oc1ccc(CN2CCN(c3ccc(Br)cn3)CC2)c2cccnc12 [Compound 34, 5-((4-(5-bromopyridin-2-yl)piperazin-1-ium-1-yl)methyl)-8-hydroxyquinolin-1-ium chloride]",58.6%
3,"Nc1ccc(N2CCN(Cc3ccc(O)c4ncccc34)CC2)cc1 [Compound 39, 5-((4-(4-aminophenyl)piperazin-1-yl)methyl)quinolin-8-ol]",16.9% and 8.0%
4,Oc1ccc(CN2CCN(c3ccc(I)cc3)CC2)c2cccnc12 [Compound 32],40.5%
